Test system: PMA-induced release of IL-6R from PBMCs from patients suffering from rheumatoid arthritis
Experiment: ELISA-based IL-6R release assay, PBMCs from RA-patients
Assay type: cell-based
Conditions: Homo sapiens, PBMC; chimeric antibodies (CHO) 1 μg/ml; Batimastat 10 μM; PMA 25 ng/ml, 24 hours
Description: In contrast to Example 34, where the inhibitory effects of the antibodies of the present disclosure on PMA-induced release of endogenous IL-6R from primary human material obtained from healthy donors using peripheral blood mononuclear cells (PBMCs) were tested, this analysis was conducted to analyze the inhibitory effects of the antibodies of the present disclosure on PMA-induced release of endogenous IL-6R from primary human material obtained from patients suffering from rheumatoid arthritis (RA-patients).
In brief, on day 1, Nunc black MaxiSorp® 96-well plates (Thermo Fisher Scientific, USA) were coated overnight with 100 μl per well of mouse anti-human IL-6R capture antibody (provided as part of the DuoSet ELISA kit) at 4 μg/ml TBS at 4° C. […] Using an infinite M1000 (Tecan Group, Switzerland) microplate reader, the fluorescence of each well was collected at an excitation wavelength of 435 nm and an emission wavelength of 555 nm.

Work on `CNC(=O)[C@H](Cc1ccccc1)NC(=O)[C@H](CC(C)C)[C@H](CSc1cccs1)C(=O)NO` [Batimastat] yielded an inhibition at 10 µM of 104%.
